The structures appear in SMILES notation. Like-named read-outs stand apart in the source and are kept apart here.

This is an account of results in patent US6919377B2, “Cyclohexylamine derivative as subtype selective NMDA receptor antagonists” (Warner Lambert Company LLC, priority 2000, dated 2005).

In one data set the test system is Alpha 1. In words: Alpha 1 (Table 4, no method given). The class given is binding. Conditions: read-out: Alpha 1 cocn IC50.
The next data set deals with NR1a/NR2B (Rattus norvegicus, UniProt P35439+Q00960). In words: Electrophysiological assay at NMDA receptor subunits expressed in Xenopus oocytes (two-electrode voltage clamp). The class given is cell-based. As to the method: The clones were transformed into appropriate host bacteria and plasmid preparations were made with conventional DNA purification techniques. A sample of each clone was linearized by restriction enzyme digestion […] was synthesized with T3 RNA polymerase. The cRNA was diluted to 400 ng/μL and stored in 1 μL aliquots at −80° C. until injection.
The Xenopus Oocyte Expression System. […] Follicle-enclosed oocytes were micro-injected with 1:1 mixtures of NR1A:NR2A, 2B or 2C.; injecting 1 to 10 ng of RNA encoding each receptor subunit. NR1A encoding RNA was injected alone at ˜20 ng. Oocytes were stored in Barth's medium containing (in mM): NaCl, 88; KCl, 1; CaCl2, 0.41; Ca (NO3)2, 0.33; MgSO4, 0.82; NaHCO3, 2.4; HEPES 5, pH 7.4, with 0.11 mg/ml gentamicin sulphate. While oocytes were still surrounded by enveloping ovarian tissues, the Barth's medium was supplemented with 0.1% bovine serum.
Drugs were applied by bath perfusion. Using oocytes expressing different subunit combinations of NMDA receptor, NMDA currents were activated by co-application of glutamate (100 μM) and glycine (1-100 μM). Inhibitory potency of the novel antagonists was assessed on responses elicited by fixed concentrations of glutamate and glycine, by measuring reductions in current induced by progressively increasing concentrations of antagonist.
Concentration-inhibition curves were fit with Equation 1. […] For incomplete curves analysis by fitting was unreliable and IC50 values were calculated by simple regression over linear portions of the curves (Origin: Microcal Software).

The target of a further data set is D2 (Homo sapiens, UniProt P14416). Description: D2 Raclopride (Table 4, no method given). The data set is classed as binding.
[1] abbreviates: Table 4, cloned rat NMDA receptor subunits in Xenopus oocytes, read-out: NR1a/NR2B Oocyte IC50.
Where [2] appears, read: Table 2, head names no subunit, electrophysiological assay results, read-out: IC50.

Sequence of NR1a/NR2B (Q00960 27-1482, other chains not shown): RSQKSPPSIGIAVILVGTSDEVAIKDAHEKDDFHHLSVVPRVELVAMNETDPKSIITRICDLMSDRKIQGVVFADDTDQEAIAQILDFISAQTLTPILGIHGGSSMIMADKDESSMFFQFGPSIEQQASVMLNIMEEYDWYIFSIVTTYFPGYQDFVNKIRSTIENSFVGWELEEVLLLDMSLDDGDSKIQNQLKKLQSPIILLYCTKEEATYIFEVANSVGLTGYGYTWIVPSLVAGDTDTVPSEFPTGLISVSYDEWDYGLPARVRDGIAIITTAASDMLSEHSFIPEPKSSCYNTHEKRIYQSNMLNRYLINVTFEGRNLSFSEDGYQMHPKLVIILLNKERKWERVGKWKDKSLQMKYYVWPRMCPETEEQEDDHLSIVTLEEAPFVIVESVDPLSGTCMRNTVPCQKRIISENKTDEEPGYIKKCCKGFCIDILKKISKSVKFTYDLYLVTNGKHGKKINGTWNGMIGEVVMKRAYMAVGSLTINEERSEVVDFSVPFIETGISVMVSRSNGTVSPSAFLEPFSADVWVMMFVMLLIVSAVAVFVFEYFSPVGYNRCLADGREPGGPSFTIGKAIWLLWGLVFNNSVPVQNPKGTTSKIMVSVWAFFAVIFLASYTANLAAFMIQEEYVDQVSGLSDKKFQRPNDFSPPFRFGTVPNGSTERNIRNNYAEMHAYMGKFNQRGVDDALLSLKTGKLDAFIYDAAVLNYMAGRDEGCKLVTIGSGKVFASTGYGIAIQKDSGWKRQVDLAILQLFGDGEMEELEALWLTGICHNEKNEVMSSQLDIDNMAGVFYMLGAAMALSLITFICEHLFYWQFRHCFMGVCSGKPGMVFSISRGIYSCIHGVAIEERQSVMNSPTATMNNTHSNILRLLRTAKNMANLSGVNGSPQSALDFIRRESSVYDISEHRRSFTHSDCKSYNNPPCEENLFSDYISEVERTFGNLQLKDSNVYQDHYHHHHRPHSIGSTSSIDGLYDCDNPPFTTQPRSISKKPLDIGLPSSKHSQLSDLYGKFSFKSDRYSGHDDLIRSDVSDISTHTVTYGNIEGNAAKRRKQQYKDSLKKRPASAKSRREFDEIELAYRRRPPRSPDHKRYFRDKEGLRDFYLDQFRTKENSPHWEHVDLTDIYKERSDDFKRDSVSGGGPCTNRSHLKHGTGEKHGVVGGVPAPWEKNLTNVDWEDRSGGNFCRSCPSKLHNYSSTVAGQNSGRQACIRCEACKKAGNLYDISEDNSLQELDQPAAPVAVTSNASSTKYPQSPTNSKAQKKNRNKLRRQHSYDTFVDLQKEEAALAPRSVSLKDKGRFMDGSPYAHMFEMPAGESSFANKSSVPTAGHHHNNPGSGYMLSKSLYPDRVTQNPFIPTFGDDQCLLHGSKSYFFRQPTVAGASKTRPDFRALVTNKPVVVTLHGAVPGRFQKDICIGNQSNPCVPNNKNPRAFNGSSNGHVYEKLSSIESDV
Sequence of D2 (P14416 whole entry): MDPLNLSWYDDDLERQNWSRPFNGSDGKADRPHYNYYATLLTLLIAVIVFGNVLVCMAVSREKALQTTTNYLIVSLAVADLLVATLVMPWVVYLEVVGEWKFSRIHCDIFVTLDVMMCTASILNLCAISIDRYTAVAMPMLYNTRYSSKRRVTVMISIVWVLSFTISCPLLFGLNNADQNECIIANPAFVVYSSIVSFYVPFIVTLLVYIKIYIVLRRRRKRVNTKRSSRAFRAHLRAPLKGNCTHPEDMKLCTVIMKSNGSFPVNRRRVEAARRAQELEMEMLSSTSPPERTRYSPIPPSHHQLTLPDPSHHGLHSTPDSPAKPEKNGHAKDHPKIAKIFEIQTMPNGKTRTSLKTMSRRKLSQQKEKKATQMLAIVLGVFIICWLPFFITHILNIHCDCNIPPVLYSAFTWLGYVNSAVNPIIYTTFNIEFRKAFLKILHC

In the case of `Oc1ccc([C@H]2CC[C@@H](NCCc3ccc(F)cc3)CC2)cc1` [Example 5a, cis-4-{4-[2-(4-Fluorophenyl)ethylamino]cyclohexyl}phenol], the values for the IC50 in the data set with Alpha 1, on NR1a/NR2B (setting [1]) and against D2 were 10 µM, 1200 nM and 2700 nM, respectively.
For `COc1ccc(CCN[C@H]2CC[C@@H](c3ccc(O)cc3)CC2)cc1` [Example 8a, cis-4-{4-[2-(4-Methoxyphenyl)ethylamino]cyclohexyl}phenol], the results for the IC50 with Alpha 1, on NR1a/NR2B (setting [1]) and on D2 were 9.2 µM, 2400 nM and 5000 nM, respectively.
Regarding `COc1ccc(CCN[C@H]2CC[C@H](c3ccc(O)cc3)CC2)cc1` [Example 8b, trans-4-{4-[2-(4-Methoxyphenyl)ethylamino]cyclohexyl}phenol], the IC50 with Alpha 1 came out at 5.1 µM; at NR1a/NR2B (setting [1]) it was 240 nM; against D2, 1900 nM.
`O=C(CCc1ccccc1)N[C@H]1CC[C@H](c2ccc(O)cc2)CC1` [Example 21, Trans-N-[4-(4-Hydroxyphenyl)cyclohexyl]-3-phenylpropionamide] showed a melting point of 201 to 206 °C. Also, the IC50 on NR1a/NR2B (setting [2]) stood at 70 nM.
As to `CC(C)(Oc1ccccc1)C(=O)N[C@H]1CC[C@H](c2ccc(O)cc2)CC1` [Example 22, Trans-N-[4-(4-Hydroxyphenyl)cyclohexyl]-2-methyl-2-phenoxy-propionamide], the melting point lay in the range of 114 to 117 °C. On NR1a/NR2B (setting [2]), the IC50 is 301000 nM.
Regarding `COc1ccc(CCCN[C@H]2CC[C@H](c3ccc(O)cc3)CC2)cc1` [Example 28, Trans-4-{4-[3-(4-methoxyphenyl)propylamino]cyclohexyl}phenol], the IC50 in the data set with Alpha 1 was found to be 2.3 µM; on NR1a/NR2B (setting [1]) it was 70 nM; on D2 it was 2970 nM.

The melting point is the temperature, or range, at which the solid turns liquid.
